Results taken from patent publication US20100028259A1, “USE OF ORGANIC CATION TRANSPORTERS FOR CANCER DIAGNOSIS AND THERAPY” (The Regents of the University of California, priority 2006, published 2010).
Each block holds one molecule with its values, some of them ahead of it.

What was measured:
HEK-hOCT2 cells = experiment: MTT drug sensitivity assay in HEK-hOCT2 cells; type: cell-based, human; settings: same test conditions as oxaliplatin MTT assay in HEK cells
Method: (§1) Cytotoxicity of the platinum-based compounds was measured by MTT (thiazolyl blue tetrazolium bromide) assay. Cells were seeded in 100 μl of the culture medium without any antibiotics in 96-well plates at a predetermined cell density. For HEK 293 cells, poly-D-lysine coated plates were used. […] For the OCT inhibitor studies, the inhibitors (i.e., disopyramide or cimetidine) were added to the medium at a specified concentration immediately before the addition of the platinum-based compounds. After incubation for a specified time period, the drug-containing medium was replaced with fresh, drug-free medium and the incubation was continued for a total of 72 hours (start from the addition of platinum-based compounds). Then, the MTT assay was performed similarly as described in Alley et al., Cancer Res., 48:589-601 (1988). […] The maximal cell growth was the cell growth in the medium without any platinum-based compounds; C is the concentration of the platinum-based compound, and γ is the slope factor.
(§2) Briefly, the cells were seeded in 96-well plates at a density of 5,000 cells/well for the transfected MDCK cells or 12,000 cells/well for the transfected HEK 293 cells. The platinum-based drugs were added on the following day. After the specified time periods of drug exposure, the drug-containing medium was replaced with fresh, drug-free medium, and the incubation was continued for a total of 72 hours (start from the time when the drug was added). After incubation, the cell growth was determined by an MTT assay. Data are expressed as mean±SD from 3 to 6 independent experiments with each performed in quadruplicate. The resistance factor (RF) was defined as the ratio of the mean IC50 value in the MOCK cells to that in the OCT-transfected cells.

human OCT3 = human OCT3 (Homo sapiens, UniProt O75751); settings: inhibitor 1.5 mM
Method: (§3) (A) The expression of human OCT1, OCT2, or OCT3 was determined in the cell lines stably transfected with human OCTs (MDCK-hOCT1, HEK-hOCT2, or HEK-hOCT3) or the corresponding empty vectors (MOCK cells) by RT-PCR as described in Example 1. The dog and human GAPDH were used as the expression control for the transfected MDCK and HEK 293 cells, respectively. Lanes 1-6: MDCK-MOCK, MDCK-hOCT1, HEK-MOCK, HEK-hOCT2, HEK-MOCK, and HEK-hOCT3. (B) The cellular uptake of model substrates (TEA for human OCT1 and OCT2; MPP^+ for human OCT3) was determined in OCT-transfected cells (solid bars) and in the corresponding MOCK cells (open bars). Disopyramide (120 μM) was used as an inhibitor for human OCT1 and cimetidine (1.5 mM) was used as an inhibitor for human OCT2 and OCT3. Data are expressed as mean±SD of six measurements.
(§4) MDCK or HEK 293 cells were grown in 24-well plates to >90% confluence in the culture medium without any antibiotics. The poly-D-lysine coated plates were used for HEK 293 cells. The cells were washed with 1×PBS first and then incubated in the uptake buffer (1×PBS) containing 10 μM ^14C-TEA or 2 μM ^3H-MPP^+ as specified. For the OCT inhibitor studies, the indicated OCT inhibitor (i.e., disopyramide or cimetidine) was added to the uptake buffer at specified concentration together with the radioactive substrate. […]

human OCT2 = human OCT2 (Homo sapiens, UniProt O15244); settings: inhibitor 1.5 mM
Method: as §3, §4

[1] = pKa values and species distribution of aquated oxaliplatin in incubation buffer; type: physicochemical; settings: PB—SO4 buffer, pH 7.4, calculated from pKa values
MDCK-hOCT1 cells [2] = experiment: Platinum-DNA adduct formation in MDCK-hOCT1 cells; type: cell-based, canine; settings: 1 μM, PB—SO4, 25 min
Method: (§5) After incubation at 37° C. and 5% CO2 for 2 hours, the cells were washed with ice-cold PBS three times and harvested. The genomic DNA was isolated from the cells and the platinum content associated with DNA was determined by ICP-MS and normalized for DNA content. Data are expressed as mean±SD from a typical experiment performed in triplicate. Two independent experiments were conducted and similar results were obtained.
(§6) After incubation, the cells were washed with ice-cold PBS three times and harvested. Genomic DNA was isolated from the harvested cells and the DNA-associated platinum content was determined by ICP-MS and normalized for the DNA content. Data are expressed as mean±SD of three measurements.
(§7) The platinum content associated with genomic DNA was determined as described in Samimi et al., Clin. Cancer Res., 10:4661-4669 (2004) with some modifications. Briefly, the cells were grown in 100 mm×20 mm dishes in the culture medium without any antibiotics to over 90% confluence. For HEK 293 cells, poly-D-lysine coated dishes were used. Then, the cells were incubated in the culture medium containing the specified concentrations of the platinum-based compounds at 37° C. in 5% CO2 for 2 hours (or 25 min as specified). In some experiments, phosphate buffer (PB: 1.06 mM KH2PO4, 2.97 mM Na2HPO4, pH 7.4) containing 155 mM NaCl (PB—Cl buffer) or 103 mM Na2SO4 (PB—SO4 buffer) was used instead of the culture medium as specified. For the OCT inhibitor study, the incubation medium (buffer) also contained disopyramide or cimetidine). If PB—Cl or PB—SO4 buffer was used, the cells were washed with the same buffer once before drug incubation. After incubation, the cells were washed with ice-cold PBS, scraped, and pelleted. Genomic DNA was isolated from the cell pellets using the Wizard® Genomic DNA Purification Kit (Promega, Madison, Wis.) following the manufacturer's instructions. Briefly, the cells were lysed with Nuclei Lysis Solution. After RNA digestion and protein precipitation, the lysates were centrifuged and the resulting supernatant was aliquoted. The genomic DNA prepared from two different aliquots of the supernatant was used for platinum and DNA content determination, respectively. For the determination of platinum, the DNA samples were treated with 70% nitric acid at 65° C. and diluted in the same way as described above. The platinum content was analyzed using ICP-MS and the DNA content was measured by absorption spectroscopy.

MDCK-MOCK cells = experiment: Platinum-DNA adduct formation in MDCK-MOCK cells; type: cell-based, canine; settings: 1 μM, PB—SO4, 25 min
Method: as §5, §6, §7

MDCK-hOCT1 cells [3] = experiment: MTT drug sensitivity assay in MDCK-hOCT1 cells; type: cell-based, canine; settings: same test conditions as oxaliplatin MTT assay in MDCK cells
Method: as §1, §2
Briefly, MDCK cells were seeded at a density of 5,000 cells/well in 96-well plates and exposed to the test compounds for 7 hours on the following day. After incubation for a total of 72 hours, the cell growth was determined by an MTT assay. The data for carboplatin was taken from Table 1 and was not determined simultaneously with the other compounds. The resistance factor (RF) was defined as the ratio of the mean IC50 value in MDCK-MOCK cells to that in MDCK-hOCT1 cells. Data are expressed as mean±SD from six measurements, and each measurement was performed in quadruplicate.

human OCT1 = molecular target: T1, human OCT1 (Homo sapiens, UniProt O15245); experiment: Cellular uptake of TEA in MDCK-hOCT1 cells, OCT inhibitor; type: cell-based, canine; settings: inhibitor 120 μM
T1 construct: stably transfected with the full length human OCT1 cDNA (MDCK-hOCT1); expressed in transfected cells
T1 sequence (O15245 1-554): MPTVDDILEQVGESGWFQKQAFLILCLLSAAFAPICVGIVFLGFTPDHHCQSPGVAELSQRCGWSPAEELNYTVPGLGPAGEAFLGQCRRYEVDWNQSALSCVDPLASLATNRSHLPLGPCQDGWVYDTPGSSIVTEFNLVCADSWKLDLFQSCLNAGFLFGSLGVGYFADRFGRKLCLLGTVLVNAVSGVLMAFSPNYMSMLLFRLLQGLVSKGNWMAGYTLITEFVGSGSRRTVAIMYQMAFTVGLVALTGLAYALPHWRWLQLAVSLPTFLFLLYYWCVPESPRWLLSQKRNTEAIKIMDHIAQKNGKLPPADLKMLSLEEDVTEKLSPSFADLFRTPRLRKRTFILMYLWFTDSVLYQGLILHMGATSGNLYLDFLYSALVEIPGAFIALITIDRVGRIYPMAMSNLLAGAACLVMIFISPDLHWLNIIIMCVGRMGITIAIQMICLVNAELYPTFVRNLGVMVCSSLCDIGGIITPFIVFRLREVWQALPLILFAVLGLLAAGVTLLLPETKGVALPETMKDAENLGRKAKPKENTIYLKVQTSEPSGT
Method: as §3, §4

Sequence of human OCT3 (O75751 whole entry): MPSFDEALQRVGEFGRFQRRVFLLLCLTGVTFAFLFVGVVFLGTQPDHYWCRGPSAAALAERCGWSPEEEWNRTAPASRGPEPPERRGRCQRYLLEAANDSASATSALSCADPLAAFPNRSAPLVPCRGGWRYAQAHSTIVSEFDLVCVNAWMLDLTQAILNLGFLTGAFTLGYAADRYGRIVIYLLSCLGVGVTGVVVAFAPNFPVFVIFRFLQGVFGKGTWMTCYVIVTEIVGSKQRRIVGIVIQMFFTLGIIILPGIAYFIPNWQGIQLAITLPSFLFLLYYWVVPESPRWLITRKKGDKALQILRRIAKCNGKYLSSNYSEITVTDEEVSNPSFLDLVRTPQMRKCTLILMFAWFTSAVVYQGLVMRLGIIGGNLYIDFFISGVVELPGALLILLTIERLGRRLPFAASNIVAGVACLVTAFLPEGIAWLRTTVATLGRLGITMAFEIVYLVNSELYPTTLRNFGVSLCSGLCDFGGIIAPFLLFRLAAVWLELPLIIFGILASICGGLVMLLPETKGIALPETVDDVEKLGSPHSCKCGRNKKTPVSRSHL
Sequence of human OCT2 (O15244 whole entry): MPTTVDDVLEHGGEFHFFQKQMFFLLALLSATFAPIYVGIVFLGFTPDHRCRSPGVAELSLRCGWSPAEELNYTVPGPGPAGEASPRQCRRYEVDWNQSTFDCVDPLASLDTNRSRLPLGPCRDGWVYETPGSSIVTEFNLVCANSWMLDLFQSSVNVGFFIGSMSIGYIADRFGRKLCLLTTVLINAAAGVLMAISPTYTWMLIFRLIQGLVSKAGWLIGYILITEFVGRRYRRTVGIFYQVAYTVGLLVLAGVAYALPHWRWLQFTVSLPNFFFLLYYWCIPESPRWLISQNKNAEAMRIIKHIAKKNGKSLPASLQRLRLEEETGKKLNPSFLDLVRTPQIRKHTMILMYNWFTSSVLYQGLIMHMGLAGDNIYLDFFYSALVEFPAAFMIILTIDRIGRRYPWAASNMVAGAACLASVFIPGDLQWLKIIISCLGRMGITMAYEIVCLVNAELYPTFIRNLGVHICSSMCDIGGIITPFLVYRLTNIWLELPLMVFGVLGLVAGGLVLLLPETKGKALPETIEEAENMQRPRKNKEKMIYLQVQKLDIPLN

effect on uptake of MPP+ in HEK-hOCT3 (human OCT3): substantially decreased
effect on uptake of TEA in HEK-hOCT2 (human OCT2): substantially decreased
SMILES: CN/C(=N/CCSCc1nc[nH]c1C)NC#N [cimetidine]
cytotoxicity of the OCT inhibitor itself (no cytotoxicity up to a concentration of) (HEK-hOCT2 cells): > 5 mM

percentage of aqua/hydroxo species [1]: 17.1%
percentage of diaqua species [1]: 82.8%
SMILES: NC1CCCCC1N.O.O.[Pt+2] [[Pt(R,R-DACH)(H2O)2]^2+]
DNA-associated platinum level in MDCK-hOCT1 (MDCK-hOCT1 cells [2]): 0.0139±0.0020 pmol/μg DNA
rb in MDCK-hOCT1 (MDCK-hOCT1 cells [2]): 4.59±0.66×10^−6
DNA-associated platinum level in MDCK-MOCK (MDCK-MOCK cells): 0.0142±0.0028 pmol/μg DNA
rb in MDCK-MOCK (MDCK-MOCK cells): 4.69±0.92×10^−6

effect on uptake of TEA in MDCK-hOCT1 (human OCT1): substantially decreased
SMILES: CC(C)N(CCC(C(N)=O)(c1ccccc1)c1ccccn1)C(C)C (centres unmarked) [disopyramide]
cytotoxicity of the OCT inhibitor itself (no cytotoxicity up to a concentration of) (MDCK-hOCT1 cells [3]): > 400 µM
